In ChEMBL document CHEMBL1201862, “PubChem BioAssay data set” (2004):
Active and inactive are the calls of the source.

Tests used:
Cytochrome P450 1A2 = target: T1, Cytochrome P450 1A2 (Homo sapiens, UniProt P05177);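 note: PubChem cytochrome P450 panel assay, CYP1A2 panel member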
T1 sequence (P05177 whole entry): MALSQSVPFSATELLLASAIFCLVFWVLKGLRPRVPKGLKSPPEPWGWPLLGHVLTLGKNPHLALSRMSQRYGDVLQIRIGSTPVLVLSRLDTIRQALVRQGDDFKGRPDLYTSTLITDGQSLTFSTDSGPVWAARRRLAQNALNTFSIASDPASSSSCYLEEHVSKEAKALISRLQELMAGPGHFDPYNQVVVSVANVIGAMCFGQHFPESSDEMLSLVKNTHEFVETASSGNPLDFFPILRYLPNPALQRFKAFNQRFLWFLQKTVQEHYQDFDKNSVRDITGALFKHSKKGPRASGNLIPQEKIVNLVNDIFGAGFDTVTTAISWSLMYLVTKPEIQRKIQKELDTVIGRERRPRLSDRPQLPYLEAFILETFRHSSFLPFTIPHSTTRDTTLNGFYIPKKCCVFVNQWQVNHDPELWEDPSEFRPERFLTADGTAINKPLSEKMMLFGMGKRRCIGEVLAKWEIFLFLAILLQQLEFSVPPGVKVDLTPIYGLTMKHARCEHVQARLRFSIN

Cytochrome P450 2C9 = Cytochrome P450 2C9 (Homo sapiens, UniProt P11712)
[1] = viability of uninfected HEp-2 cells – cell-based, HTS, cytotoxicity control for RSV inhibitor project, dose response (AID 2410); assay type: functional; settings: human respiratory syncytial virus
[2] = test system: Streptococcus sp. 'group A'; experiment: Streptococcus pyogenes SK(-)GAS viability under kanamycin – luminescence, BacTiterGlo, confirmation, counter-screen for streptokinase expression inhibitor project, dose response (AID 1900); assay type: functional, organism-based
Streptokinase A = target: T2, Streptokinase A (Streptococcus pyogenes serotype M1, UniProt P10520); experiment: viability-normalized secreted streptokinase activity reduction – plasminogen activation absorbance, OD405, dose response (AID 1914); assay type: functional, Streptococcus pyogenes M1 GAS;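 note: secreted streptokinase activity via plasminogen activation per viability signal from cell pellet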
T2 sequence (P10520 whole entry): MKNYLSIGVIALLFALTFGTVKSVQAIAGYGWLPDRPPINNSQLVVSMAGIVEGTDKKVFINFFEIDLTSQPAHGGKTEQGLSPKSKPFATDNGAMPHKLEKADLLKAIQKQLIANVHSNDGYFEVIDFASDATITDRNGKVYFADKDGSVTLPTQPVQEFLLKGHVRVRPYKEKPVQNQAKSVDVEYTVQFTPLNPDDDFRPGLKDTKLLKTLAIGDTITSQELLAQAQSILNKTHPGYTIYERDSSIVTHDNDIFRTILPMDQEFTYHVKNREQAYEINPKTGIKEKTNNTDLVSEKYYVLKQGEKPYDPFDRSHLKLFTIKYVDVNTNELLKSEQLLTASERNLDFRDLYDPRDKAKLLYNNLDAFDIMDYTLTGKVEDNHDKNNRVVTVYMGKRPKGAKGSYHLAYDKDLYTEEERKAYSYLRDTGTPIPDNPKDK

Streptococcus = experiment: GAS UMAA2166 growth inhibition – luminescence, BacTiterGlo, counter-screen for streptokinase expression inhibitor project, dose response (AID 1915); assay type: functional, organism-based;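 note: potency for reduction of bacterial viability or growth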
INS1 = experiment: INS-1E survival protection against cytokine death – cell-based, luminescence, retest, dose response (AID 449756); assay type: functional; settings: Rattus norvegicus;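 note: cell death triggered by IL-1 beta plus TNF-alpha plus IFN-gamma mixture; protective hits raise ATP signal compared with cytokine alone wells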
Cytochrome P450 3A4 = Cytochrome P450 3A4 (Homo sapiens, UniProt P08684);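 note: CYP3A4 tested as one member of a cytochrome P450 panel screen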
[3] = target: Luciferin 4-monooxygenase (Photinus pyralis, UniProt P08659); experiment: inhibition of purified Photinus pyralis luciferase – biochemical, luminescence, dose response (AID 1891)
[4] = Luminescence Cell-Based Dose Confirmation HTS to Identify Inhibitors of Platelet Dense Granule Release. [Related pubchem assays: 1663 (Primary HTS), 1678 (Summary of Project)]; assay type: functional
[5] = target: T3, Rac GTPase-activating protein 1 (Homo sapiens, UniProt Q9H0H5); experiment: blockers of MgcRacGAP-driven Rac1 GTP hydrolysis – biochemical, ADP Hunter fluorescence, primary and confirmatory, confirmation (AID 624330); assay type: functional
T3 sequence (Q9H0H5 whole entry): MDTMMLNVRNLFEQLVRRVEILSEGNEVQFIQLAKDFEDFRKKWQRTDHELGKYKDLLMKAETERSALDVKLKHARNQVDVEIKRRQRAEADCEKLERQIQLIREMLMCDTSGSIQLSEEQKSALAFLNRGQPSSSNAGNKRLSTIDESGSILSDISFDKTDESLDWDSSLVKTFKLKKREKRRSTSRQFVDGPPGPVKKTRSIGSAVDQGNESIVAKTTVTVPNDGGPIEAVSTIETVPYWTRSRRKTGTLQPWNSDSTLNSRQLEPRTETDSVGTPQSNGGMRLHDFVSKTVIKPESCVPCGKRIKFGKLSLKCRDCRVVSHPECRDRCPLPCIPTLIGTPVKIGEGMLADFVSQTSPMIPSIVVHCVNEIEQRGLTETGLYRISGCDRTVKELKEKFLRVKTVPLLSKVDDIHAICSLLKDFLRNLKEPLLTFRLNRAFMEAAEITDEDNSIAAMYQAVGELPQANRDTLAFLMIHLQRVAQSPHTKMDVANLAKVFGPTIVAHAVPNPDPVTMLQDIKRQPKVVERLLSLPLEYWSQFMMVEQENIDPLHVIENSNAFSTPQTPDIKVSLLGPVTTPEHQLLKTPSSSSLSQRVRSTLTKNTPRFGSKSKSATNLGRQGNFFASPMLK

Cytochrome P450 2C19 = Cytochrome P450 2C19 (Homo sapiens, UniProt P33261); experiment: Cytochrome panel assay with activity outcomes. Panel member name: p450-cyp2c19 Compounds with AC50 equal or less than 10 uM are considered active; assay type: functional; settings: read-out: AC50
[6] = Luminescence Cell-Based Dose Retest to Confirm Inhibitors of Cancer Stem Cells. [Related pubchem assays (depositor defined):AID2717, AID2721]; assay type: functional; settings: Homo sapiens
[7] = Trypanosoma cruzi growth suppression in host cells – NIH3T3 host cells, beta-gal luminescence, confirmation (AID 2044); assay type: functional, cell-based;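 note: intracellular parasites grown in NIH/3T3 mouse fibroblasts as host cells; luminescent beta-galactosidase reporter signal from transgenic T. cruzi replicating inside host cells; inhibitors lower the luminescence signal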
[8] = NIH3T3 cell viability loss – ATP luminescence, mouse fibroblasts, counter-screen, dose response (AID 2010); assay type: functional, cell-based;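 note: cells exposed to compound for about 90 hours before reading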

Sequence of Luciferin 4-monooxygenase (P08659 whole entry): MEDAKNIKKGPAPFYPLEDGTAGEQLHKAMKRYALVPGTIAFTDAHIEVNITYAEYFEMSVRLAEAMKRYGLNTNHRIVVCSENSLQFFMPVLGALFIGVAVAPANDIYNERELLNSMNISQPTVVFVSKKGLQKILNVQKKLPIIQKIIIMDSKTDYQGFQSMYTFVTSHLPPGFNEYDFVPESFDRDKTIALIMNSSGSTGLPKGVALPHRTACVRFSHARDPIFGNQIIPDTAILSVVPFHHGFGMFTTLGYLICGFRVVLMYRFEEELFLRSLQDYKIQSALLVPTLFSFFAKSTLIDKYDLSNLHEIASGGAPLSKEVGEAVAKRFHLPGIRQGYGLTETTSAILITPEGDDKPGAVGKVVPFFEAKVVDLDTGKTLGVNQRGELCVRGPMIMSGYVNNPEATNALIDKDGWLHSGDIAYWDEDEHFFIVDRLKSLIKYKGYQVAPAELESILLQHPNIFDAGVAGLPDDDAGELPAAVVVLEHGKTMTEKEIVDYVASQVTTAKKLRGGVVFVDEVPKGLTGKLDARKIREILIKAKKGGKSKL
Sequence of Cytochrome P450 3A4 (P08684 whole entry): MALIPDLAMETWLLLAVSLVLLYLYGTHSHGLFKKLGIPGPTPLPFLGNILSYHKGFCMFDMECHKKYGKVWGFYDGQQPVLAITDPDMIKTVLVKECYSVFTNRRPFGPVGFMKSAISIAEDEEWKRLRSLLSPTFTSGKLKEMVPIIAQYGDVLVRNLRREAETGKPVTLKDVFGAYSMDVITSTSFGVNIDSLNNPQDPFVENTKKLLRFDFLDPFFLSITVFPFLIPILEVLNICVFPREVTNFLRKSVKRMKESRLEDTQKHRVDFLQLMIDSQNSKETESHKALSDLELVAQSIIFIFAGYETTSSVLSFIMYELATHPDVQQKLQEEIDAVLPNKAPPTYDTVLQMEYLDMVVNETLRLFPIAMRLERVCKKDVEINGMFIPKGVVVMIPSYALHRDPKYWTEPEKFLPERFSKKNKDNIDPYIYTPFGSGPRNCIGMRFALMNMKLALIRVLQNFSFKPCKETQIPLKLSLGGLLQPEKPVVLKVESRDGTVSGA
Sequence of Cytochrome P450 2C9 (P11712 whole entry): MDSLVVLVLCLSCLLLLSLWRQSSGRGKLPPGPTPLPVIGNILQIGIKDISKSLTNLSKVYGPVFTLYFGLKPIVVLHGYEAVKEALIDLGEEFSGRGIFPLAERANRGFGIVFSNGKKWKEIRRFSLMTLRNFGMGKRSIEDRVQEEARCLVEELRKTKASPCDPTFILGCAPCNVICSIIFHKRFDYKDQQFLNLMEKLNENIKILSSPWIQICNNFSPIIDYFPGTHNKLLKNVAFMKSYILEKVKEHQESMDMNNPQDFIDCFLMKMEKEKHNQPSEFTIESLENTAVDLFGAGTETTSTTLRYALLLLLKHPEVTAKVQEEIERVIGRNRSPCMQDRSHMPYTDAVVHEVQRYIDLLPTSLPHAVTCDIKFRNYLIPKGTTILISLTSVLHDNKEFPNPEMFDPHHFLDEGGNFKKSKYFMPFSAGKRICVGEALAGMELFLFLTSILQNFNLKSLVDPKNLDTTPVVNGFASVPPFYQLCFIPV
Sequence of Cytochrome P450 2C19 (P33261 whole entry): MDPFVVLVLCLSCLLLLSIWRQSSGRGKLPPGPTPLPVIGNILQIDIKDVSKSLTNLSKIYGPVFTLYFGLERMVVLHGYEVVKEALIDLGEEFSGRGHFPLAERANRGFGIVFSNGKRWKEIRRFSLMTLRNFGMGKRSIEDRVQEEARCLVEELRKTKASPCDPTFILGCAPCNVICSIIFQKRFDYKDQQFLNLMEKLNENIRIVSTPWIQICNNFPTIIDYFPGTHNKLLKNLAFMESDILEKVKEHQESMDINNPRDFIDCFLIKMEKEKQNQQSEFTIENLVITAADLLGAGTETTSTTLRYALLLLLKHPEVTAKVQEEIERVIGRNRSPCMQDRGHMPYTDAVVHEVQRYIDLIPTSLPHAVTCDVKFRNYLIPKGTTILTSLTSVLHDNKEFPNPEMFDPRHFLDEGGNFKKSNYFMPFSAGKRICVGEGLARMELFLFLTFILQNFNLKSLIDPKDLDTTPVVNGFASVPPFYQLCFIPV

O=C(NC(=S)Nc1cccc(Cl)c1N1CCCC1)c1ccc(-c2cccc([N+](=O)[O-])c2)o1
AC50 (Cytochrome P450 1A2): 25.1 µM (inconclusive) | AC50 (Cytochrome P450 2C9): 5.01 µM (inconclusive)

C/C(=N\Nc1ccc(Cl)c(Cl)c1)c1ccc(-n2ccnc2)cc1
CC50 [1]: 35.9 µM (active) | EC50 [2]: 3.05 µM (active) | EC50 (Streptokinase A): 17.2 µM (active) | EC50 (Streptococcus): 11.9 µM (active)

CCO[C@H]1OC(C(=O)N2CCN(Cc3ccc4c(c3)OCO4)CC2)=C[C@@H](c2csc3ccccc23)[C@@H]1CCCO
AC50 (INS1): 6.83 µM (active)

CCOC(=O)c1c(-c2ccc(OC)cc2)csc1NC(=O)CCN1C(=O)c2ccccc2C1=O
AC50 (Cytochrome P450 1A2): 12.6 µM (inconclusive) | AC50 (Cytochrome P450 3A4): 4.47 µM (inconclusive)

CCOC(=O)C(/C=N/c1ccc(C(O)(C(=O)OCC)C(F)(F)F)cc1C)=C(/O)OCC (configuration not stated)
AC50 (INS1): 6.01 µM (active)

Cc1cc(O)nc2ccc(S(=O)(=O)NC3CCCCC3)cc12
EC50 [3]: > 112 µM (not active) | EC50 [4]: 3.55 µM (active)

C[C@@H](C(=O)Nc1ccc2ccccc2c1)[C@@H]1C[C@@]1(C)[C@@H](N)c1ccccc1
AC50 (Cytochrome P450 2C9): 25.1 µM (inconclusive)

O=C(CNCc1ccco1)Nc1cccc(S(=O)(=O)N2CCCCC2)c1
IC50 [5]: 169 µM (active)

O=C(Nc1ccccc1)/C(=C\c1ccc2c(c1)OCO2)NC(=O)c1ccco1
AC50 (Cytochrome P450 2C19): 22.4 µM (inconclusive) | AC50 (Cytochrome P450 1A2): 25.1 µM (inconclusive) | AC50 (Cytochrome P450 3A4): 20 µM (inconclusive)

CCNC(=O)[C@H]1O[C@@H](n2cnc3c(N)ncnc32)[C@H](O)[C@@H]1O [NECA]
EC50 [4]: < 0.088 µM (active)

C(=N\N1CCOCC1)/c1nc(-c2ccccc2)n2ccccc12
IC50 [5]: 22.3 µM (active)

Cc1ccccc1NCc1ccc([N+](=O)[O-])s1
AC50 [6]: 11 µM (active)

c1cc(N2CCCC3(CCNCC3)C2)ccn1
AC50 (Cytochrome P450 2C19): 25.1 µM (inconclusive) | AC50 (Cytochrome P450 3A4): 12.6 µM (inconclusive) | AC50 (Cytochrome P450 2C9): 25.1 µM (inconclusive)

O=c1oc(-c2ccc(O)c(O)c2)cc2cccc(O)c12 [THUNBERGINOL A]
IC50 [5]: 19.7 µM (active)

CNC(=O)[C@H](C)[C@@H]1C[C@@]1(C)[C@@H](NC(=O)OCc1ccccc1)c1ccccc1
AC50 (Cytochrome P450 1A2): 20 µM (inconclusive)

Cc1ccc(CS(=O)(=O)Cc2ccc(C(=O)NCC3CCCO3)o2)cc1 (configuration not stated)
AC50 (Cytochrome P450 2C19): 31.6 µM (inconclusive) | AC50 (Cytochrome P450 3A4): 15.8 µM (inconclusive) | AC50 (Cytochrome P450 2C9): 39.8 µM (inconclusive)

O=C(Cn1cnc2c(cnn2-c2ccccc2)c1=O)OCc1ccccc1
EC50 [3]: > 112 µM (not active) | EC50 [4]: > 112 µM (not active)

CNC[C@H](CC1CCCCC1)NC[C@H](CO)NCCc1cccc(C(F)(F)F)c1
CC50 [1]: 12.5 µM (active) | AC50 [6]: 7.61 µM (active)

O=C1NC(=O)C(=Cc2ccco2)C(=O)N1
IC50 [5]: 141 µM (active)

Cc1cc(OCCCCCN2CCCC2)ccc1Cl
EC50 [7]: 1.23 µM (active) | EC50 [8]: 19.2 µM (active) | IC50 [5]: 131 µM (active)

CCn1cc(C(=O)O)c(=O)c2cc(F)c(N/N=C/c3ccccc3[N+](=O)[O-])cc21
EC50 [2]: 4.31 µM (active) | EC50 (Streptokinase A): > 150 µM (not active) | EC50 (Streptococcus): 13.4 µM (active) | AC50 (INS1): 10.1 µM (active)

Nc1nc(-c2ccc3ccccc3c2)cc(-c2cc(-c3ccc4ccccc4c3)nc(N)n2)n1
AC50 (Cytochrome P450 1A2): 0.501 µM (inconclusive)

CCCC/C=C/C(NC(=O)c1ccc(-c2ccccc2)cc1)c1ccccc1 (configuration not stated)
AC50 (Cytochrome P450 1A2): 15.8 µM (inconclusive)

Fc1ccc(N2CCN(Cc3c[nH]nc3-c3ccccc3)CC2)cc1
EC50 [2]: > 150 µM (not active) | EC50 (Streptokinase A): > 150 µM (not active) | EC50 (Streptococcus): > 150 µM (not active)

Cc1ccc(C(=O)NNC2=Nc3cccc4cccc2c34)cc1
EC50 [2]: 3.26 µM (active) | EC50 (Streptokinase A): > 150 µM (not active) | EC50 (Streptococcus): > 150 µM (not active)

CCOC(=O)c1c(C)oc2cc(Br)c(OC(=O)N3CCOCC3)cc12
EC50 [3]: > 112 µM (not active) | EC50 [4]: > 112 µM (not active)

COc1ccc(Cc2nnc(NC(=O)CSc3ccc(C)cc3)s2)cc1OC
AC50 (Cytochrome P450 2C19): 0.891 µM (inconclusive) | AC50 (Cytochrome P450 2C9): 2.51 µM (inconclusive)

CSc1nc(C)c2c(n1)N(c1ccc(C(C)C)cc1)CC2
AC50 (Cytochrome P450 2C19): 17.8 µM (inconclusive) | AC50 (Cytochrome P450 2C9): 11.2 µM (inconclusive)

COC(=O)c1ccc(/C=C/c2nc(O)c3ccccc3n2)cc1
EC50 [3]: 17.7 µM (active) | EC50 [4]: 7.02 µM (active)

O=C(CCCN1C(=O)/C(=C/c2ccccc2)SC1=S)NCCCn1ccnc1
AC50 [6]: 76.3 µM (active) | AC50 (INS1): 21.2 µM (active)

O=C(NC(=S)Nc1ccc(N2CCCCC2)c(Cl)c1)c1ccc2c(c1)OCCO2
AC50 [6]: 2.54 µM (active)

O=C(Nc1ccc(Cl)cc1)OCc1cc(-c2ccccc2Cl)on1
EC50 [3]: > 112 µM (not active) | EC50 [4]: > 112 µM (not active) | AC50 (Cytochrome P450 2C9): 1.12 µM (inconclusive)

CCOC(=O)c1sc2nccc(N(C)C)c2c1N=CNOCc1c(F)cccc1Cl
EC50 [2]: 11.6 µM (active) | EC50 (Streptokinase A): 27 µM (active) | EC50 [7]: 1.26 µM (active) | EC50 [8]: > 60 µM (not active) | EC50 (Streptococcus): > 150 µM (not active)

COc1ccc2cc(C(=O)N/N=C/c3sc4ccccc4c3O)ccc2c1
AC50 [6]: 1.61 µM (active) | AC50 (INS1): 3.02 µM (active)

CC(C)[C@@H](CO)NC(=O)c1ccc2c3n(nc2c1)-c1ccccc1CO3
EC50 [3]: 6.1 µM (active) | EC50 [4]: 2.69 µM (active)

CCOc1cc(S(=O)(=O)Nc2ccc(CC)cc2)ccc1Cl
AC50 [6]: 6.17 µM (active)

O=C(Nc1cccnc1)C1(F)C(F)(F)C(F)(F)C(F)(F)C(F)(F)C1(F)F
AC50 (INS1): 3.18 µM (active)

CCN(CC)c1nc(C(F)(F)F)nc2c1nnn2Cc1ccccc1
EC50 [2]: 7.21 µM (active) | EC50 (Streptokinase A): 12.4 µM (active) | EC50 (Streptococcus): > 150 µM (not active)

Cc1ccc(OCCCC(=O)N2CCOCC2)cc1
AC50 (Cytochrome P450 1A2): 25.1 µM (inconclusive) | AC50 (Cytochrome P450 3A4): 25.1 µM (inconclusive) | AC50 (Cytochrome P450 2C9): 39.8 µM (inconclusive)

COc1ccc(-c2nc3ccccc3c(=O)n2N)cc1
AC50 (Cytochrome P450 2C19): 0.631 µM (inconclusive) | AC50 (Cytochrome P450 2C9): 2.82 µM (inconclusive)

O=C(CSc1nnc(CNC(=O)c2c(F)cccc2F)o1)NCCc1ccccc1
EC50 [2]: > 150 µM (not active) | EC50 (Streptokinase A): > 150 µM (not active) | EC50 (Streptococcus): > 150 µM (not active)

COc1ccc2nc(C3CCCCC3)nc(C3CCCCC3)c2c1
EC50 [2]: 2.8 µM (active) | EC50 (Streptokinase A): > 150 µM (not active) | EC50 (Streptococcus): 5.71 µM (active)
